Measurements as given in PMC9356726 (Molecular Biology and Evolution, 2022).

Test system: AlmA
Assay type: biochemical, Streptomyces sp. A012304
Conditions: succinyl-CoA regenerated, 20 mM HEPES-NaOH pH 7.5, 20 μM PLP, 3 mM MgCl2, 37°C, 0.01 μM enzyme

N[C@@H](CO)C(=O)O [serine]
Km: 6.8 ± 1.4 mM
